Laboratory results from US20250099634A1, “METHOD OF TREATING CANCER” (Novartis AG, priority 2023, published 2025).
Like-named read-outs stand apart in the source and are kept apart here.

Assays:
midgut carcinoid tumors = settings: cited from earlier work
metastatic midgut NET = settings: 30 mg/month, cited from earlier work
[1] = healthy subjects, 20 mg and 60 mg; cited from earlier work
[2] = All grades, randomized treatment period, Safety Set
[3] = Grade >=3, randomized treatment period, Safety Set
[4] = all grades, randomized treatment period
[5] = most frequent AEs, summary table

## C[C@@H](O)[C@@H]1NC(=O)[C@H](CCCCN)NC(=O)[C@@H](Cc2c[nH]c3ccccc23)NC(=O)[C@H](Cc2ccccc2)NC(=O)[C@@H](NC(=O)[C@H](N)Cc2ccccc2)CSSC[C@@H](C(=O)N[C@H](CO)[C@@H](C)O)NC1=O [Octreotide LAR, octreotide]
Midgut carcinoid tumors; NETTER-1
  confirmed events (disease progressions RECIST 1.1 centrally assessed or deaths): 70
  median PFS: 8.5 months
Midgut carcinoid tumors; NETTER-1 control arm, high dose (60 mg)
  median time free from relapse: 8.4 months
Metastatic midgut NET; 42 patients
  time to tumor progression: 14.3 months
Metastatic midgut NET
  patients achieving stable disease: 67%
[2]
  AEs leading to discontinuation of Any Treatment (Lutathera, Octreotide): 2 (2.7) n (%)
  AEs leading to discontinuation of Octreotide: 2 (2.7) n (%)
  AEs leading to dose interruption of Any Treatment (Lutathera, Octreotide): 11 (15.1) n (%)
  AEs leading to dose interruption of Octreotide: 11 (15.1) n (%)
  AEs leading to dose reduction of Any Treatment (Lutathera, Octreotide): 1 (1.4) n (%)
  AEs leading to dose reduction of Octreotide: 1 (1.4) n (%)
  Adverse event: Abdominal pain: 20 (27.4) n (%)
  Adverse event: Alanine aminotransferase increased: 10 (13.7) n (%)
  Adverse event: Alopecia: 1 (1.4) n (%)
  Adverse event: Anaemia: 5 (6.8) n (%)
  Adverse event: Aspartate aminotransferase increased: 8 (11.0) n (%)
  Adverse event: Asthenia: 9 (12.3) n (%)
  Adverse event: COVID-19: 10 (13.7) n (%)
  Adverse event: Constipation: 6 (8.2) n (%)
  Adverse event: Decreased appetite: 7 (9.6) n (%)
  Adverse event: Diarrhoea: 25 (34.2) n (%)
  Adverse event: Gamma-glutamyltransferase increased: 8 (11.0) n (%)
  Adverse event: Headache: 5 (6.8) n (%)
  Adverse event: Hyperglycaemia: 11 (15.1) n (%)
  Adverse event: Lymphocyte count decreased: 0 n (%)
  Adverse event: Oedema peripheral: 6 (8.2) n (%)
  Adverse event: Platelet count decreased: 4 (5.5) n (%)
  Adverse event: Vomiting: 6 (8.2) n (%)
  Adverse event: Weight increased: 5 (6.8) n (%)
  Adverse event: White blood cell count decreased: 3 (4.1) n (%)
  Adverse events: 69 (94.5) n (%)
  Adverse events Related to Any Treatment: 43 (58.9) n (%)
  Adverse events Related to Octreotide: 43 (58.9) n (%)
  Adverse events: Number of subjects with at least one event: 69 (94.5) n (%)
[3]
  AEs leading to discontinuation of Any Treatment (Lutathera, Octreotide): 2 (2.7) n (%)
  AEs leading to discontinuation of Octreotide: 2 (2.7) n (%)
  AEs leading to dose interruption of Any Treatment (Lutathera, Octreotide): 5 (6.8) n (%)
  AEs leading to dose interruption of Octreotide: 5 (6.8) n (%)
  AEs leading to dose reduction of Any Treatment (Lutathera, Octreotide): 1 (1.4) n (%)
  AEs leading to dose reduction of Octreotide: 1 (1.4) n (%)
  Adverse event: Abdominal pain: 3 (4.1) n (%)
  Adverse event: Alanine aminotransferase increased: 2 (2.7) n (%)
  Adverse event: Alopecia: 0 n (%)
  Adverse event: Anaemia: 1 (1.4) n (%)
  Adverse event: Aspartate aminotransferase increased: 2 (2.7) n (%)
  Adverse event: Asthenia: 0 n (%)
  Adverse event: COVID-19: 0 n (%)
  Adverse event: Constipation: 0 n (%)
  Adverse event: Decreased appetite: 0 n (%)
  Adverse event: Diarrhoea: 1 (1.4) n (%)
  Adverse event: Gamma-glutamyltransferase increased: 2 (2.7) n (%)
  Adverse event: Headache: 0 n (%)
  Adverse event: Hyperglycaemia: 2 (2.7) n (%)
  Adverse event: Lymphocyte count decreased: 0 n (%)
  Adverse event: Oedema peripheral: 1 (1.4) n (%)
  Adverse event: Platelet count decreased: 0 n (%)
  Adverse event: Vomiting: 1 (1.4) n (%)
  Adverse event: Weight increased: 0 n (%)
  Adverse event: White blood cell count decreased: 0 n (%)
  Adverse events: 20 (27.4) n (%)
  Adverse events Related to Any Treatment: 3 (4.1) n (%)
  Adverse events Related to Octreotide: 3 (4.1) n (%)
  Adverse events: Number of subjects with at least one event: 20 (27.4) n (%)
[4]
  adverse event by preferred term: abdominal pain: 27.4%
  adverse event by preferred term: diarrhoea: 34.2%
[5]
  Incidence of AEs: Abdominal pain: 20 (27.4) (%)
  Incidence of AEs: Diarrhoea: 25 (34.2) (%)
Randomized treatment period
  AEs leading to discontinuation of Lutathera and/or Octreotide: 2.7%
  AEs leading to discontinuation of Octreotide: 2.7%
  Any AEs: 94.5%
  Grade 3/4 AE: GGT increased: 2.7%
  Grade 3/4 AE: Lymphocyte count decreased: 0%
  Grade 3/4 AE: abdominal pain: 4.1%
  Grade 3/4 AE: small intestinal obstruction: 0%
  Grade ≥3 AEs: 27.4%
  Grade ≥3 AEs, Treatment-related: 4.1%
[1]
  plasma exposure vs dose: dose-proportional
